{"source": "patent US12521383B2", "about": "(Slayback Pharma LLC, priority 2022, dated 2026)", "origin": "cited, not measured here", "settings": "in water, pH independent solubility profile", "data": [{"smiles": "COc1ccc(-n2nc(C(N)=O)c3c2C(=O)N(c2ccc(N4CCCCC4=O)cc2)CC3)cc1", "note": "[apixaban, 1-(4-methoxyphenyl)-7-oxo-6-[4-(2-oxopiperidin-1-yl)phenyl]-4,5-dihydropyrazolo [3,4-c] pyridine-3-carboxamide]", "values": [{"measurement": "aqueous solubility", "value": "40 to 50", "unit": "µg/mL"}]}]}
